Laboratory results from patent US20130131075A1, “NEW COMPOUNDS” (Boehringer Ingelheim International GmbH, priority 2009, published 2013).

Target: T1, cynomolgus BK1-receptor (Macaca fascicularis, UniProt Q3BCU0)
T1 construct: expressed in transfected cells; host or cells: CHO cells (homogenate)
T1 sequence (Q3BCU0 1-352): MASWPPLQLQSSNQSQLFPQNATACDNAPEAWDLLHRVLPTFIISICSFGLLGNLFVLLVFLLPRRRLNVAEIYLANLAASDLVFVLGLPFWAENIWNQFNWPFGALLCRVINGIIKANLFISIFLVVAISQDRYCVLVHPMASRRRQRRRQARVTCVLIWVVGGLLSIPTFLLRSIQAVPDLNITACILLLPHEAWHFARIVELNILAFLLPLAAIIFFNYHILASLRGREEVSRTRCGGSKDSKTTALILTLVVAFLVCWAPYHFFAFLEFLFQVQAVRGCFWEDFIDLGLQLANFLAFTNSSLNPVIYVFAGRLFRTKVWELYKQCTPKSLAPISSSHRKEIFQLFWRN
Assay: cynoBK1-receptor binding assay
Conditions: CHO cells expressing cynomolgus BK1-receptor, radioligand kallidine (DesArg10,Leu9); for inhibition at 10 µM: at 10 μgmol/L
Outline: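 Ki derived by non-linear fitting of concentration-binding curves. Test compound competed against 0.5 to 5.0 nM tritiated kallidine (DesArg10,Leu9) on cynomolgus BK1-CHO cell homogenate (50 to 250 μg protein/assay) for 60-180 minutes at ambient temperature, then filtered. 1.0 μM kallidine (DesArg10) set non-specific binding.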

Row | Structure (SMILES) | inhibition at 10 µM | Ki
1 | Cn1cnc(C(=O)NC2(C(=O)NCc3ccc(Nc4ccccc4C(F)(F)F)cc3)CC2)c1 [(17)] | 75% | 
2 | CCNc1ccc(C(=O)NC2(C(=O)NCc3ccc(Nc4ccc(Br)cc4C(F)(F)F)cn3)CC2)cn1 [(334)] |  | 0.02 µM
3 | O=C(O)c1ccc(Nc2ccc(CNC(=O)C3(NC(=O)c4cncnc4)CC3)nc2)c(C(F)(F)F)c1 [(195)] | 42% | > 0.5 µM
4 | O=C(CC(F)(F)F)NC1(C(=O)NCc2ccc(Nc3ccccc3C(F)(F)F)cc2)CC1 [(7)] | 100% | 
5 | O=C(NC1(C(=O)NCc2ccc(Nc3ccc(Br)cc3C(F)(F)F)cn2)CC1)c1ccnnc1 [(174)] | 99% | 
6 | CC(C)c1ncc(C(=O)N[C@@]2(C(=O)NCc3ccc(Nc4ccc(F)cc4C(F)(F)F)cc3)CCOC2)cn1 [(310)] |  | 0.039 µM
7 | Cc1ncc(C(=O)NC2(C(=O)NCc3ccc(Nc4ccc(Cl)cc4C(F)(F)F)cn3)CC2)cn1 [(147)] | 107% | 0.0044 µM
8 | CC(NC(=O)C1(NC(=O)c2cncnc2)CC1)c1ncc(Nc2ccc(Br)cc2C(F)(F)F)cc1F (stereo not drawn) [(213)] |  | 0.0019 µM
9 | Nc1ccc(C(=O)NC2(C(=O)NCc3ccc(Nc4ccc(Cl)cc4C(F)(F)F)cn3)CC2)cn1 [(206)] |  | 0.0051 µM
10 | COc1ccc(C(=O)NC2(C(=O)NCc3ccc(Nc4ccc(Cl)cc4C(F)(F)F)cn3)CC2)cn1 [(240)] |  | 0.506 µM
11 | Nc1cncc(C(=O)NC2(C(=O)NCc3ncc(Nc4c(F)cccc4C(F)(F)F)cc3F)CC2)c1 [(125)] | 108% | 0.012 µM
12 | CN1CC(C(=O)N[C@@]2(C(=O)NCc3ccc(Nc4ccccc4C(F)(F)F)cc3)CCOC2)CC1=O (stereo partly drawn) [(71)] | 80% | 
13 | O=C(N[C@@]1(C(=O)NCc2ncc(Nc3ccc(Cl)cc3C(F)(F)F)cc2F)CCOC1)c1cncc(O)c1 [(331)] |  | 0.066 µM
14 | CC(NC(=O)C1(NC(=O)c2cncnc2)CC1)c1ccc(Nc2ccc(Cl)cc2C(F)(F)F)cn1 (stereo not drawn) [(164)] | 106% | 0.0034 µM
15 | CC(NC(=O)C1(NC(=O)c2cncnc2)CC1)c1ncc(Nc2ccc(F)cc2C#N)cc1F (stereo not drawn) [(212)] |  | 0.008 µM
16 | O=C(NC1(C(=O)NCc2ccc(Nc3c(F)cc(Br)cc3Cl)cn2)CC1)c1cncnc1 [(325)] |  | 0.374 µM
17 | Nc1ccc(C(=O)N[C@@]2(C(=O)NCc3ccc(Nc4ccc(F)cc4C(F)(F)F)cn3)CCOC2)cn1 [(349)] |  | 0.648 µM
18 | Cc1cc(Nc2ccccc2C(F)(F)F)cnc1CNC(=O)C1(NC(=O)c2cncc(N)c2)CC1 [(375)] |  | 0.048 µM
19 | O=C(NC1(C(=O)NCc2ccc(Nc3ccccc3C(F)(F)F)cc2)CC1)C1CC1 [(15)] | 99% | 
20 | Cc1ncc(C(=O)N[C@@]2(C(=O)NCc3ccc(Nc4ccc(F)cc4C(F)(F)F)cc3)CCOC2)cn1 [(288)] |  | 0.0091 µM
21 | CC(NC(=O)C1(NC(=O)c2cncnc2)CC1)c1ccc(Nc2ccc(OC(F)F)cc2)cc1 (stereo not drawn) [(25)] | 86% | 
22 | Nc1cc(C(=O)NC2(C(=O)NCc3ccc(Nc4ccc(F)cc4C(F)(F)F)cn3)CC2)[nH]n1 [(185)] | 87% | 
23 | Cc1cc(Br)ccc1Nc1ccc(CNC(=O)C2(NC(=O)c3cncnc3)CC2)nc1 [(53)] | 101% | 0.197 µM

Row | Structure (SMILES) | inhibition at 10 µM | Ki
24 | CCOc1ccc(Nc2ccc(CNC(=O)C3(NC(=O)c4cncnc4)CC3)cc2)c(C(F)(F)F)c1 [(117)] | 111% | 0.0028 µM
25 | Cc1ncc(C(=O)NC2(C(=O)NCc3ncc(Nc4ccc(Cl)cc4C(F)(F)F)cc3C)CC2)cn1 [(360)] |  | 0.0025 µM
26 | O=C(N[C@@]1(C(=O)NCc2ccc(Nc3ccccc3C(F)(F)F)cc2)CCOC1)c1ccnc(Cl)c1 [(61)] | 97% | > 0.5 µM
27 | O=C(N[C@@]1(C(=O)NCc2ccc(Nc3ccccc3C(F)(F)F)cc2)CCOC1)c1ccoc1 [(93)] | 84% | 
28 | O=C(NC1(C(=O)NCc2ccc(Nc3ccc(Cl)cc3C(F)(F)F)cn2)CC1)c1ccno1 [(369)] |  | 0.037 µM
29 | COc1cc(C(=O)N[C@@]2(C(=O)NCc3ccc(Nc4ccccc4C(F)(F)F)cc3)CCOC2)ccn1 [(79)] | 104% | 0.292 µM
30 | Nc1cncc(C(=O)N[C@@]2(C(=O)NCc3ccc(Nc4ccccc4C(F)(F)F)cc3F)CCOC2)c1 [(236)] |  | 0.0082 µM
31 | Cc1cc(Nc2ccccc2C(F)(F)F)cnc1CNC(=O)[C@]1(NC(=O)c2cncc(N)c2)CCOC1 [(359)] |  | 0.125 µM
32 | Nc1cncc(C(=O)N[C@@]2(C(=O)NCc3ccc(Nc4c(F)cccc4C(F)(F)F)cc3F)CCOC2)c1 [(290)] |  | 0.046 µM
33 | COc1ncc(C(=O)NC2(C(=O)NCc3ncc(Nc4c(F)cccc4C(F)(F)F)cc3F)CC2)cn1 [(129)] | 107% | 0.011 µM
34 | O=C(NC1(C(=O)NCc2ccc(Nc3c(F)cccc3C(F)(F)F)cn2)CC1)c1cncnc1 [(44)] | 109% | 0.007 µM
35 | N#Cc1cccc(F)c1Nc1ccc(CNC(=O)C2(NC(=O)c3cncnc3)CC2)cc1 [(116)] | 83% | > 0.5 µM
36 | COc1ccc(C(=O)NC2(C(=O)NCc3ccc(Nc4ccc(Br)cc4C(F)(F)F)cn3)CC2)cn1 [(235)] |  | 0.489 µM
37 | O=C(NC1(C(=O)NCc2ccc(Nc3ccccc3C(F)(F)F)cc2)CC1)c1cncc(C(F)(F)F)c1 [(26)] | 109% | 
38 | O=C(NC1(C(=O)NCc2ccc(Nc3ccc(Cl)cc3C(F)(F)F)cn2)CC1)c1cnc(O)nc1 [(350)] |  | 0.043 µM
39 | O=C(NC1(C(=O)NCc2ccc(Nc3ccc(F)cc3C(F)(F)F)cc2)CC1)c1ccno1 [(31)] | 112% | 0.013 µM
40 | CC(NC(=O)C1(NC(=O)c2cncnc2)CC1)c1ccc(Nc2ccc(F)cc2C(F)(F)F)cn1 (stereo not drawn) [(45)] | 104% | 0.002 µM
41 | O=C(NC1(C(=O)NCc2ccc(Nc3ccc(Cl)cc3C(F)(F)F)cn2)CC1)c1ccc(O)nc1 [(239)] |  | 0.182 µM
42 | CNc1cncc(C(=O)N[C@@]2(C(=O)NCc3ccc(Nc4ccc(F)cc4C(F)(F)F)cc3)CCOC2)c1 [(305)] |  | 0.076 µM
43 | O=C(NC1(C(=O)NCc2ccc(Nc3ccc(Cl)cc3Br)cn2)CC1)c1cncnc1 [(167)] | 104% | 0.019 µM
44 | CNc1cncc(C(=O)NC2(C(=O)NCc3ccc(Nc4ccc(F)cc4C(F)(F)F)cn3)CC2)n1 [(168)] | 90% | 0.235 µM
45 | O=C(NC1(C(=O)NCc2ccc(Nc3ccc(Cl)cc3C(F)(F)F)cn2)CC1)c1cncnc1 [(55)] | 108% | 0.0033 µM
46 | CC(C)c1ncc(C(=O)NC2(C(=O)NCc3ccc(Nc4ccc(F)cc4C(F)(F)F)cn3)CC2)cn1 [(245)] |  | 0.018 µM

Row | Structure (SMILES) | inhibition at 10 µM | Ki
47 | Cc1cncc(C(=O)NC2(C(=O)NCc3ccc(Nc4ccc(Cl)cc4C(F)(F)F)cn3)CC2)c1 [(353)] |  | 0.052 µM
48 | O=C(N[C@@]1(C(=O)NCc2ccc(Nc3ccccc3C(F)(F)F)cc2)CCOC1)c1cc[nH]n1 [(106)] | 69% | 
49 | CNc1ncc(C(=O)N[C@@]2(C(=O)NCc3ccc(Nc4ccccc4C(F)(F)F)cc3)CCOC2)cn1 [(82)] | 107% | 
50 | O=C(NC1(C(=O)NCc2ccc(Nc3ccc(Cl)cc3C(F)(F)F)cn2)CC1)c1cccc(O)n1 [(211)] |  | 0.025 µM
51 | O=C(Cc1cccnc1)N[C@@]1(C(=O)NCc2ccc(Nc3ccccc3C(F)(F)F)cc2)CCOC1 [(104)] | 54% | 
52 | Nc1ncc(C(=O)NC2(C(=O)NCc3ccc(Nc4ccc(F)cc4C(F)(F)F)cn3)CC2)o1 [(169)] | 90% | 0.292 µM
53 | O=C(NC1(C(=O)NCc2ccc(Nc3ccc(F)cc3C(F)(F)F)cn2)CC1)c1cnc2cc[nH]c2c1 [(255)] |  | 0.015 µM
54 | O=C(N[C@@]1(C(=O)NCc2ccc(Nc3ccc(F)cc3C(F)(F)F)cc2)CCOC1)c1cnc2cc[nH]c2c1 [(365)] |  | 0.376 µM
55 | O=C(NC1(C(=O)NCc2ccc(Nc3ccc(F)cc3C(F)(F)F)cn2)CC1)c1cncnc1 [(41)] | 108% | 0.0026 µM
56 | CCNc1ncc(C(=O)NC2(C(=O)NCc3ccc(Nc4ccc(F)cc4C(F)(F)F)cn3)CC2)cn1 [(247)] |  | 0.0039 µM
57 | Nc1cncc(C(=O)N[C@@]2(C(=O)NCc3ccc(Nc4ccc(Br)cc4C(F)(F)F)cn3)CCOC2)c1 [(222)] |  | 0.068 µM
58 | Nc1cc(C(=O)NC2(C(=O)NCc3ccc(Nc4ccc(F)cc4C(F)(F)F)cn3)CC2)on1 [(150)] | 105% | 0.037 µM
59 | CNc1ncc(C(=O)NC2(C(=O)NCc3ccc(Nc4ccc(F)cc4C#N)cc3)CC2)cn1 [(183)] | 100% | 0.021 µM
60 | CC(NC(=O)C1(NC(=O)c2cncnc2)CC1)c1ncc(Nc2ccc(Cl)cc2C(F)(F)F)cc1F (stereo not drawn) [(203)] |  | 0.0019 µM
61 | CNc1cncc(C(=O)NC2(C(=O)NCc3ccc(Nc4ccc(F)cc4C(F)(F)F)cn3)CC2)c1 [(270)] |  | 0.051 µM
62 | O=C(N[C@@]1(C(=O)NCc2ccc(Nc3ccc(F)cc3C(F)(F)F)cc2)CCOC1)c1cncs1 [(299)] |  | 0.222 µM
63 | O=C(NC1(C(=O)NCc2ccc(Nc3c(F)cccc3Cl)cn2)CC1)c1cncnc1 [(200)] | 92% | 
64 | N#CCC(=O)NC1(C(=O)NCc2ccc(Nc3ccc(Cl)cc3C(F)(F)F)cn2)CC1 [(364)] |  | 0.077 µM
65 | O=C(N[C@@]1(C(=O)NCc2ccc(Nc3ccc(Cl)cc3C(F)(F)F)cn2)CCOC1)c1cncnc1 [(228)] |  | 0.078 µM
66 | O=C(NC1(C(=O)NCc2ccc(Nc3ccc(F)cc3C(F)(F)F)cn2)CC1)c1ccc(Cl)nc1 [(253)] |  | 0.049 µM
67 | Nc1ccc(C(=O)N[C@@]2(C(=O)NCc3ncc(Nc4ccc(F)cc4C(F)(F)F)cc3F)CCOC2)cn1 [(348)] |  | 0.031 µM
